Source: patent US6375928B1, “Neutrophil stimulating peptides” (Peptech Limited, priority 1990, dated 2002)

Assays:
P. falciparum = assay: Ability of peptide-stimulated neutrophils to inhibit in vitro growth of malaria parasites; format: cell-based; details: neutrophils incubated with peptide 37° C. 30 minutes; thawed normal, normal and immune serum (FIG. 5)
Protocol: The ability of neutrophils stimulated with peptides 418 and 419 (SEQ ID Nos. 17 & 18) to inhibit in vitro growth of malaria parasites was assessed.
Briefly, neutrophils were incubated with peptides 418 and 419 (SEQ ID NOs. 17 & 18) at 37° C. for 30 minutes and then washed with HBSS. The neutrophils were then added to a culture of red blood cells infected with P. falciparum. The cultures were then examined microscopically for evidence of parasite death.

ICAM = assay: Induction of ICAM on human umbilical vein endothelial cells (HUVEC); format: cell-based; details: peptide 1 mg, four hours at 37° C. (FIG. 7)
Protocol: Peptide 419 (SEQ ID NO. 18) was tested for its ability to induce ICAM using the following procedure.
The cells were then washed extensively with PBS containing Ca^++ and Mg^++ and fixed ([…] 0.025% guteraldehyde, overnight, 4° C.). The cells were again washed, and incubated with anti-ICAM antibody (84H10) for 1 hr at room temperature. The cells were washed and incubated for a further 1 hr at room temperature in the presence of rabbit anti-mouse Ig-HRP. Surface expression of Icam was then quantitated using the ABTS substrate by absorption at OD405 nm.

Pseudomonas aeruginosa = assay: Pseudomonas experiment: chronic lung infection in mice; format: in vivo; details: female Swiss mice, chronic Pa lung infection; 0.5 mg peptide tail-vein each day for 3 days from day 12; n=4; p<0.05 vs carrier (5.25)
Protocol: Chronic lung infection by Pseudomonas aeruginosa (Pa) is common in cystic fibrosis. […] The present inventors reasoned that pre-sensitising neutrophils with TNF intravascularly, prior to their entry into the lung, may overcome this problem. […] The ability of i.v.-injected 419 (SEQ ID NO. 18) to protect against chronic lung injury induced by Pseudomonas was tested. Chronic lung infections were established in 120 14 week female Swiss mice by introducing the bacteria suspended in agar beads (<200 μm diameter) into the lung. Mice were anaesthetised and 30 μl of bead suspension introduced via a polyethylene cannula into the right bronchus through a small incision between the tracheal rings. After recover, animals (n=20) developed a chronic infection followed for at least 10-14 days. Control animals included: sham-operated (n=2); and those inoculated with sterile beads (n=6) or with beads containing fresh, heat-killed Pa (n=5).

human neutrophils = assay: Chemiluminescence assay: priming of neutrophils for F-met-leu-phe response (respiratory burst); format: cell-based
Protocol: Purified human neutrophils were pretreated with peptide for 20 minutes before the addition of f-met-leu-phe. The lucigenin dependent chemiluminescence response, which reflects superoxide production, was then measured. The results obtained are set out in Table 2 and are expressed as mV of lucigenin dependent chemiluminescence and represent the maximal cell activity attained.
Results are expressed as mV of lucigenin dependent chemiluminescence and represent peak of response i.e. the maximal cell activity attained.

monocytes = assay: Priming of monocytes for a respiratory burst (chemiluminescence); format: cell-based; details: 10^6 monocytes/tube/ml, 30 min pre-incubation 37° C.
Protocol: Peptide 419 (SEQ ID NO. 18) was assayed for its ability to prime monocytes for a respiratory burst. This assay was conducted essentially as described above for neutrophils except that the cells were cultured for 24 hours prior to assay.

[1] = with fMLP, 419 100 μg/10^6 monocytes, 50 U TNF or no pre-treatment
[2] = without fMLP, 419 100 μg/10^6 monocytes or 50 U TNF

Substance: P S T H V L I T H T I (PSTHVLITHTI) [Peptide 419]
- inhibition of in vitro growth of malaria parasites by stimulated neutrophils (in words) (P. falciparum): more effective than TNF
- induction of ICAM surface expression (in words) (ICAM): does not induce the cell adhesion molecule ICAM
- percentage peripheral consolidation, mean (se) (Pseudomonas aeruginosa): 0.25 (se 0.25) %
- neutrophil stimulating activity / stimulation of neutrophil respiratory burst (in words) (human neutrophils): neutrophil stimulating activity
- Chemiluminescence mean + sem (human neutrophils; 100 μg peptide, priming neutrophils for respiratory burst): 18.6 ± 0.5 mV
- Peak mV Chemiluminescence, Mean ± S.D. (monocytes; [1]): 240.0 ± 32.527 mV
- Peak mV Chemiluminescence, experiment 1 (monocytes; [1]): 263.0 mV
- Peak mV Chemiluminescence, experiment 2 (monocytes; [1]): 217.0 mV
- Peak mV Chemiluminescence, Mean ± S.D. (monocytes; [2]): 3.385 ± 1.365 mV
- Peak mV Chemiluminescence, experiment 1 (monocytes; [2]): 2.42 mV
- Peak mV Chemiluminescence, experiment 2 (monocytes; [2]): 4.35 mV
